From ChEMBL document CHEMBL4387741, “Optimization of novel reversible Bruton's tyrosine kinase inhibitors identified using Tethering-fragment-based screens” (Bioorg Med Chem, 2019)

Experiments:
Cytochrome P450 2C9 = Cytochrome P450 2C9 (Homo sapiens, UniProt P11712); test: Inhibition of CYP2C9 (unknown origin)
B cell [1] = test: (§1) Antiproliferative activity against goat anti-human IgM antibody-stimulated human PBMC-derived B cells assessed as decrease in cell viability pretreated for 30 mins followed by goat anti-human IgM antibody stimulation for 3 days by CellTiter-Glo reagent assay; type: functional, cell-based
Cytochrome P450 2C19 = Cytochrome P450 2C19 (Homo sapiens, UniProt P33261); test: Inhibition of CYP2C19 (unknown origin)
Cytochrome P450 3A4 = Cytochrome P450 3A4 (Homo sapiens, UniProt P08684); test: Inhibition of CYP3A4 (unknown origin)
Cytochrome P450 1A2 = Cytochrome P450 1A2 (Homo sapiens, UniProt P05177); test: Inhibition of CYP1A2 (unknown origin)
[2] = target: Tyrosine-protein kinase TXK (Homo sapiens, UniProt P42681); test: Binding affinity to wild-type human partial length TXK tyrosine kinase (L238 to W527 residues) expressed in bacterial expression system by Kinomescan method
[3] = target: Angiopoietin-1 receptor (Homo sapiens) (UniProt Q02763); test: Inhibition of wild-type human partial length TIE2 (N804 to T1112 residues) expressed in bacterial expression system at 1 uM by Kinomescan method relative to control
[4] = target: Tyrosine-protein kinase ITK/TSK (Homo sapiens, UniProt Q08881); test: Binding affinity to wild-type human partial length ITK (R335 to L620 residues) expressed in bacterial expression system by Kinomescan method
[5] = target: Tyrosine-protein kinase Tec (Homo sapiens, UniProt P42680); test: Binding affinity to wild-type human partial length TEC (L341 to D620 residues) expressed in bacterial expression system by Kinomescan method
[6] = Lipophilicity, log D of the compound; type: physicochemical; details: octanol/water
[7] = tested on: Tyrosine-protein kinase ABL1 (Homo sapiens), P00519 [Y253F]; test: Inhibition of human phosphorylated ABL1 Y253F mutant (S229 to K512 residues) expressed in mammalian expression system at 1 uM by Kinomescan method relative to control
[8] = target: Cyclin-dependent kinase 16 (Homo sapiens) (UniProt Q00536); test: Inhibition of wild-type human partial length PCTK1 (G160 to A474 residues) expressed in mammalian expression system at 1 uM by Kinomescan method relative to control
[9] = target: Ribosomal protein S6 kinase alpha-3 (Homo sapiens) (UniProt P51812); test: Inhibition of wild-type human partial length N-terminal RSK2 kinase domain 1 (M1 to D394 residues) expressed in mammalian expression system at 1 uM by Kinomescan method relative to control
B cell [10] = test: as §1, with “antibody/recombinant human IL4-stimulated” for “antibody-stimulated”, “antibody/recombinant human IL4” for “antibody”; type: functional, cell-based
[11] = target: Mitogen-activated protein kinase kinase kinase kinase 2 (Homo sapiens) (UniProt Q12851); test: Inhibition of wild-type human partial length MAP4K2 (M1 to G318 residues) expressed in mammalian expression system at 1 uM by Kinomescan method relative to control
B cell [12] = test: Antiproliferative activity against goat anti-human IgM antibody/BAFF-stimulated human PBMC-derived B cells assessed as decrease in cell viability pretreated for 30 mins followed by goat anti-human IgM antibody/BAFF stimulation for 3 days by CellTiter-Glo reagent assay; type: functional, cell-based
[13] = Plasma clearance in Sprague-Dawley rat at 1 mg/kg, iv relative to hepatic blood flow; type: ADME, organism-based; details: in vivo
[14] = target: Protein-tyrosine kinase 6 (Homo sapiens) (UniProt Q13882); test: Inhibition of wild-type human partial length BRK (L166 to T451 residues) expressed in bacterial expression system at 1 uM by Kinomescan method relative to control
[15] = target: Tyrosine-protein kinase Tec (Homo sapiens) (UniProt P42680); test: Inhibition of wild-type human partial length TEC (L341 to D620 residues) expressed in bacterial expression system at 1 uM by Kinomescan method relative to control
[16] = target: Serine/threonine-protein kinase 36 (Homo sapiens) (UniProt Q9NRP7); test: Inhibition of wild-type human partial length STK36 (M1 to T271 residues) expressed in bacterial expression system at 1 uM by Kinomescan method relative to control
[17] = target: Dual specificity mitogen-activated protein kinase kinase 3 (Homo sapiens) (UniProt P46734); test: Inhibition of wild-type human full length MEK3 (M1 to S318 residues) expressed in mammalian expression system at 1 uM by Kinomescan method relative to control
[18] = target: Serine/threonine-protein kinase PAK 6 (Homo sapiens) (UniProt Q9NQU5); test: Inhibition of wild-type human partial length PAK6 (N298 to C681 residues) expressed in bacterial expression system at 10 uM by Kinomescan method relative to control
[19] = tested on: Phosphatidylinositol 4,5-bisphosphate 3-kinase catalytic subunit alpha isoform (Homo sapiens), P42336 [I800L]; test: Inhibition of human partial length PIK3CA I800L mutant (R108 to N1068 residues) expressed in mammalian expression system at 10 uM by Kinomescan method relative to control
[20] = tested on: Phosphatidylinositol 4,5-bisphosphate 3-kinase catalytic subunit alpha isoform (Homo sapiens), P42336 [E542K]; test: Inhibition of human partial length PIK3CA E542K mutant (R108 to N1068 residues) expressed in mammalian expression system at 10 uM by Kinomescan method relative to control
[21] = target: Serine/threonine-protein kinase Nek6 (Homo sapiens) (UniProt Q9HC98); test: Inhibition of wild-type human full length NEK6 (M8 to T313 residues) expressed in bacterial expression system at 10 uM by Kinomescan method relative to control
[22] = target: Serine/threonine-protein kinase WNK4 (Homo sapiens) (UniProt Q96J92); test: Inhibition of wild-type human partial length WNK4 (A31 to D461 residues) expressed in mammalian expression system at 10 uM by Kinomescan method relative to control
[23] = target: Dual specificity tyrosine-phosphorylation-regulated kinase 2 (Homo sapiens) (UniProt Q92630); test: Inhibition of wild-type human full length DYRK2 (M1 to S528 residues) expressed in mammalian expression system at 10 uM by Kinomescan method relative to control
[24] = target: Death-associated protein kinase 3 (Homo sapiens) (UniProt O43293); test: Inhibition of wild-type human partial length DAPK3 (M1 to A277 residues) expressed in bacterial expression system at 10 uM by Kinomescan method relative to control
[25] = tested on: Tyrosine-protein kinase ABL1 (Homo sapiens), P00519 [T315I]; test: Inhibition of human non-phosphorylated ABL1 T315I mutant (S229 to K512 residues) expressed in mammalian expression system at 10 uM by Kinomescan method relative to control
[26] = target: Serine/threonine-protein kinase MRCK beta (Homo sapiens) (UniProt Q9Y5S2); test: Inhibition of wild-type human partial length MRCKB (L56 to S417 residues) expressed in bacterial expression system at 10 uM by Kinomescan method relative to control

Cytochrome P450 2C19, sequence (P33261 whole entry): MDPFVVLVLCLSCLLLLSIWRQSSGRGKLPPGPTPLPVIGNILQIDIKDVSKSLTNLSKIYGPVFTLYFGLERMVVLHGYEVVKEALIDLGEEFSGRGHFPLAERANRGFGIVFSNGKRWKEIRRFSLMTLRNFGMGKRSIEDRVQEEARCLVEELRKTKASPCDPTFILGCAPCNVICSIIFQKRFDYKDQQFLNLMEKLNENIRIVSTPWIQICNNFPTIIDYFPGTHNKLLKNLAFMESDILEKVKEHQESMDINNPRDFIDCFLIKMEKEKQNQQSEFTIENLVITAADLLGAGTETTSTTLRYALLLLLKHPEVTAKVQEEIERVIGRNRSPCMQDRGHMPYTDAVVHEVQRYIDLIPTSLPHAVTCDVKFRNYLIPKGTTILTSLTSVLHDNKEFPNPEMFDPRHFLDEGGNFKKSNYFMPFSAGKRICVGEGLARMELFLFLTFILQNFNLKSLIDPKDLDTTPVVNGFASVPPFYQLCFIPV
Cytochrome P450 3A4, sequence (P08684 whole entry): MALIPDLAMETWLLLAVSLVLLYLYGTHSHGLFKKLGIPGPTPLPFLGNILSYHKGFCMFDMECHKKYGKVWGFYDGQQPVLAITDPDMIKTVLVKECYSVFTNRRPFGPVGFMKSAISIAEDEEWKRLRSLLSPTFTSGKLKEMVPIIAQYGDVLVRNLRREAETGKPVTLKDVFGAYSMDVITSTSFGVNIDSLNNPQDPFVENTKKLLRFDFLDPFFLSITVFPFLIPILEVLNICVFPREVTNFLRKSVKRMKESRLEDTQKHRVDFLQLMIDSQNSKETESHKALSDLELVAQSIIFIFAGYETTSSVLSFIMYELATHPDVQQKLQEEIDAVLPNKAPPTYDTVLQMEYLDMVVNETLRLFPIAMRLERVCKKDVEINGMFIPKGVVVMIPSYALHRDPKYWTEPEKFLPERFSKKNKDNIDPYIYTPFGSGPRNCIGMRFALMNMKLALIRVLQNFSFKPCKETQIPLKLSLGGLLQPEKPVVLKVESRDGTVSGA
Tyrosine-protein kinase ITK/TSK, sequence (Q08881 whole entry, the tested form may be a part): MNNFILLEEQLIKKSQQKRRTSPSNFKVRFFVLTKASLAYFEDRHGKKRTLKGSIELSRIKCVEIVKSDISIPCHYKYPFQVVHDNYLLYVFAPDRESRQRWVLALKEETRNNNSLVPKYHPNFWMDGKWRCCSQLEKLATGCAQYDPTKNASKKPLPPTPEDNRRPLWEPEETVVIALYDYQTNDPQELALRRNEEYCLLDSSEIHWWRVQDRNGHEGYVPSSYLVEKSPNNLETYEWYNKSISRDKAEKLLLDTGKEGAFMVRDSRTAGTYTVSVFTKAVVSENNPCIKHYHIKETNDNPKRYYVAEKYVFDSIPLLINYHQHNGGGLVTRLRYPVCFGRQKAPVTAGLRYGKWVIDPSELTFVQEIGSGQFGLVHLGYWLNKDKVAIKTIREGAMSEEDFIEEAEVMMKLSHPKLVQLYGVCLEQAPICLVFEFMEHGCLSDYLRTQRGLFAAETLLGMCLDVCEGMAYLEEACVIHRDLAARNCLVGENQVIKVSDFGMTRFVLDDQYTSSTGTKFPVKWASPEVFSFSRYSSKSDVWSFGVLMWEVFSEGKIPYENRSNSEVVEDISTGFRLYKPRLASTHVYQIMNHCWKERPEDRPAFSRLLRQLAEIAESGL
Cytochrome P450 2C9, sequence (P11712 whole entry): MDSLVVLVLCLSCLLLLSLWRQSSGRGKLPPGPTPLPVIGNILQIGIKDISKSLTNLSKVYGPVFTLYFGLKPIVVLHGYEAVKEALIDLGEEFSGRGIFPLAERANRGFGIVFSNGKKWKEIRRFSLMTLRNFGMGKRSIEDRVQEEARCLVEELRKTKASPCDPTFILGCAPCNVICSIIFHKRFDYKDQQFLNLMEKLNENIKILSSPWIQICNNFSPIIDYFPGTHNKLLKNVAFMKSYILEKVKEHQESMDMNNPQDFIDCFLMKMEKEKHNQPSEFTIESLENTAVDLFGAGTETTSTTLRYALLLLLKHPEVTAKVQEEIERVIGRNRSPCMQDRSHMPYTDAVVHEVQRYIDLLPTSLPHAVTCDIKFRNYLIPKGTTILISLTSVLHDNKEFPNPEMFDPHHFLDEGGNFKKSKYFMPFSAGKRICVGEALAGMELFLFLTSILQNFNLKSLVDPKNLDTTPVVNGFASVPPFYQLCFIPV
Cytochrome P450 1A2, sequence (P05177 whole entry, the tested form may be a part): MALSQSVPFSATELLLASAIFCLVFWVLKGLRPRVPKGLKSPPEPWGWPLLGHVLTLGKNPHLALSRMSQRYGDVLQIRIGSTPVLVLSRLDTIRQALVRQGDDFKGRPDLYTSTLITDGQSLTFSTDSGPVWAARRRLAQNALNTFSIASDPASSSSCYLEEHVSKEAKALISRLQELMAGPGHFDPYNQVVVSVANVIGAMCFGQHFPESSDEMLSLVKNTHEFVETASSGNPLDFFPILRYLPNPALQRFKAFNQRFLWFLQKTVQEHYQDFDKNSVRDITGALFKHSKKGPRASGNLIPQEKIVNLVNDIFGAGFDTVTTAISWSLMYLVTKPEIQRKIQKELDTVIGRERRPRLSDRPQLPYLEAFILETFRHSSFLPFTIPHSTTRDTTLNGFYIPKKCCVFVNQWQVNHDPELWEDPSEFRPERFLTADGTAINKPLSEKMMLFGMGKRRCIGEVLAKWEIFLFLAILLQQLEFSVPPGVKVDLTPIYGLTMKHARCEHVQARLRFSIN
Tyrosine-protein kinase TXK, sequence (P42681 whole entry, the tested form may be a part): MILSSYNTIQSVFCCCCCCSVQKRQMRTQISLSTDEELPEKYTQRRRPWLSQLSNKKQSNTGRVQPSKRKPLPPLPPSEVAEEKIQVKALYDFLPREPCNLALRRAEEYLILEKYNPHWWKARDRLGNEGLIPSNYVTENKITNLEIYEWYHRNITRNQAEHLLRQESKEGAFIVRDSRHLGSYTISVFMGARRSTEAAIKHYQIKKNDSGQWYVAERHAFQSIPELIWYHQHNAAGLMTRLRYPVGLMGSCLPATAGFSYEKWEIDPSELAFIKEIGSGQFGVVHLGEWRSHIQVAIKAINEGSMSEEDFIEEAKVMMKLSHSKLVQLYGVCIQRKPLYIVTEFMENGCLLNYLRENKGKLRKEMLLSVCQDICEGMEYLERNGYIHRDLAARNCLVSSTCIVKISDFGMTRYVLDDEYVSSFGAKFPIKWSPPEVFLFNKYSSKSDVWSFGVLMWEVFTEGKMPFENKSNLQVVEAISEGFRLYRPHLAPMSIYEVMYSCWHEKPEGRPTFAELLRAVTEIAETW
Tyrosine-protein kinase Tec, sequence (P42680 whole entry, the tested form may be a part): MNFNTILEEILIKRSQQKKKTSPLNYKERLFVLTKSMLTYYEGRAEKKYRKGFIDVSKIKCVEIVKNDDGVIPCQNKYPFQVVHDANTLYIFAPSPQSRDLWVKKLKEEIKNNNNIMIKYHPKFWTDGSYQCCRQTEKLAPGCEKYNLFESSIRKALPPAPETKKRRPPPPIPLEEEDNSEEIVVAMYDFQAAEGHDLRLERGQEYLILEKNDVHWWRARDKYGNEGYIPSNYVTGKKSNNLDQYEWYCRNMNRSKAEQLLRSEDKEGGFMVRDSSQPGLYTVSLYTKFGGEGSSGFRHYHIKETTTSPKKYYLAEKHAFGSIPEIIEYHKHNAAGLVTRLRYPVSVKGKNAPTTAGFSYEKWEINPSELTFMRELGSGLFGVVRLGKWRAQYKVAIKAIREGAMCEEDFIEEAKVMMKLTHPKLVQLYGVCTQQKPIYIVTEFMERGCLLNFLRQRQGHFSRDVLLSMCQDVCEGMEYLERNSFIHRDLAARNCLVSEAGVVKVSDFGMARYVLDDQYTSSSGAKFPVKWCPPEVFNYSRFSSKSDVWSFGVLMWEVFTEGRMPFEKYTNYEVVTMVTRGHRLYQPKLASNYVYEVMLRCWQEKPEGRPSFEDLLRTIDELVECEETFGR
Phosphatidylinositol 4,5-bisphosphate 3-kinase catalytic subunit alpha isoform (Homo sapiens), P42336 [I800L], sequence (P42336 whole entry I800L, the tested form may be a part, canonical isoform): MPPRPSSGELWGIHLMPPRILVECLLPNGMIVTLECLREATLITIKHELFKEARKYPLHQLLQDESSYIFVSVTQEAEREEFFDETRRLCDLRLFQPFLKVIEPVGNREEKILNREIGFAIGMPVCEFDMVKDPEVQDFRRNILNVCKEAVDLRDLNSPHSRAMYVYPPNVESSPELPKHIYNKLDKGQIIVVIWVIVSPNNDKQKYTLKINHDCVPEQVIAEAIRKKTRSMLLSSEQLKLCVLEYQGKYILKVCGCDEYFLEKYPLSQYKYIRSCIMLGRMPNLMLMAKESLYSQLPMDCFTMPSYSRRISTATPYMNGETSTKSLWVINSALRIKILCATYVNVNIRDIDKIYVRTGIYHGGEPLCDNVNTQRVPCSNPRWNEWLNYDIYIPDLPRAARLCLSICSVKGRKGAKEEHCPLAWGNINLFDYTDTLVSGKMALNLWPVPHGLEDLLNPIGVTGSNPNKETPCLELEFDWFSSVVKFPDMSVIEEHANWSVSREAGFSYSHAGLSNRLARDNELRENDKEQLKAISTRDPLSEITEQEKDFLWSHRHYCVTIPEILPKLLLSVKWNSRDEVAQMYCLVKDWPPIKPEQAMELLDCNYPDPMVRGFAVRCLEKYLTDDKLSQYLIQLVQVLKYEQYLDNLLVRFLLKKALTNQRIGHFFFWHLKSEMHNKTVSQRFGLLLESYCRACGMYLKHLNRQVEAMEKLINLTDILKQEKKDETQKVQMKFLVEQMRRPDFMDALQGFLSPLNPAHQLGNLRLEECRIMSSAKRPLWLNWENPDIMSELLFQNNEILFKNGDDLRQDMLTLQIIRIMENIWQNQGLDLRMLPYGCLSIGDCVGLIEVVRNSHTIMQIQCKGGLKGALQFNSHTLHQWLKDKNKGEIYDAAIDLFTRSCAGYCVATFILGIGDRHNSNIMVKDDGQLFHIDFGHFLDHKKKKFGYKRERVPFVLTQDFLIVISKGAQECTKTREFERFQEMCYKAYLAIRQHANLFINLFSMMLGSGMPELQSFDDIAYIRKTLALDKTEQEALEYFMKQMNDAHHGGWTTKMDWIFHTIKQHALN

Compound | IC50 (Cytochrome P450 2C9) [µM] | IC50 (B cell [1]) [µM] | IC50 (Cytochrome P450 2C19) [µM] | IC50 (Cytochrome P450 3A4) [µM] | IC50 (Cytochrome P450 1A2) [µM] | Kd [2] [µM] | Kd [4] [µM] | Kd [5] [µM] | IC50 (B cell [10]) [µM] | IC50 (B cell [12]) [µM] | also measured
O=C(Nc1cccc([C@@H]2CN(c3ncnc4[nH]ccc34)CCN2CCO)c1)Nc1c(F)cccc1N1CCCC1 | > 5 | 0.251 | > 5 | > 5 | > 5 | 0.53 | 0.005 | 0.42 | 0.238 to 0.24 | 0.092 | inhibition [3]: 99%; logD [6]: 2.6; inhibition [7]: 100%; inhibition [8]: 80%; inhibition [9]: 94%; inhibition [11]: 82%; CL [13]: 11%; inhibition [14]: 99%; inhibition [15]: 45%; inhibition [16]: 100%; inhibition [17]: 77%
O=C(Nc1cccc([C@H]2CCCN(c3ncnc4[nH]ccc34)C2)c1)Nc1ccccc1N1CCCC1 | 1.8 | 1.01 | 2.2 | 1 | 2.2 | > 1 | 0.4 | > 1 | 1.89 | 0.916 | inhibition [18]: 85%; inhibition [19]: 34%; inhibition [20]: 81%; inhibition [21]: 69%; inhibition [22]: 87%; inhibition [23]: 78%; inhibition [24]: 4.1%; inhibition [25]: 65%; inhibition [26]: 90%
